Data set [1] is described as follows: distribution coefficient logD, n-octanol/PBS. The class given is physicochemical. The following applies: n-octanol/PBS, pH 7.4, n-octanol/PBS pH 7.4; overall mean. On the procedure: page 19: Figure S3: HPLC purification of [18F]PSMA-MIC02 (A) and after 4 h (B). 5. Distribution coefficient LogD. […] cup. 100 µL of the formulated final solution of [18F]PSMA-MIC01 or [18F]PSMA-MIC02 was added and vortexed for 1 minute and centrifuged for 5 min at […]. The different layers were separated and 100 µL of each layer were measured on a γ-counter. Based on the counts per minute (CPM) of each fraction, the partition coefficient was measured with the following formula: log(CPMoctanol/CPMPBS). The obtained data are as followed. Table S2. Counts per minute (CPM) of the 3 indidicually measured triplicates of [18F]PSMA-MIC01 of n- octanol and PBS. Octanol (CPM) PBS (CPM) BLK (CPM) LogD Mean SD […] No 1.2 2823.43 2715328.33 93.59 -2.99 […] No 2.3 394.49 640463.84 93.59 -3.21 […] No 3.2 3690.69 2357291.58 50.84 -2.81 No 3.3 5848.38 3956671.48 52.31 -2.83 -3.01 0.22 18 (1 picture or pasted object on this page, not shown here)

Another data set concerns LNCaP tumor. On the set-up: method as in PMID 27789722. The following applies: cited from earlier work.
Data set [2] concerns the target T1, PSMA (Homo sapiens, UniProt Q04609).
T1 construct: host or cells: LNCaP cells
As to the kind of experiment: competitive binding radioassay with [18F]PSMA-1007 as radioactive competitor on LNCaP cells. On the procedure:
During the pre‐clinical evaluation of [^18F]PSMA‐MIC01, many hospitals including the University Medical Center Groningen changed from using [^68Ga]PSMA‐11 to [^18F]PSMA‐1007. Therefore, the binding affinities for the 2nd generation PSMA‐tracers‐tracers were determined in a radioassay using [^18F]PSMA‐1007 as radioactive competitor (Figure 1 D). page 20: Table S3. Counts per minute (CPM) of the 3 indidicually measured triplicates of [18F]PSMA-MIC01 of n- octanol and PBS Octanol (CPM) PBS (CPM) BLK (CPM) LogD Mean SD […] No 1.2 2995.66 4176463.25 58.39 -3.15 […] No 2.3 1020.97 1916376.47 30.41 -3.29 -3.22 0.09 6. Cell culture. Prostate cancer cell lines PC-3 and LNCaP were obtained from the American Type Culture Collection (ATCC, Manassas, VA). Cells were cultured in RPMI-1640 (Lonza, Swiss), supplemented with 10 % fetal calf serum (FCS, Thermo Scientific Waltham, MA) at 37°C in a humidified 5 % CO2 atmosphere. To enhance adherence of LNCaP cells tissue culture flasks and/or well plates were pre-coated with poly-D-lysine (Merck) according manufacture protocol. Cells were regularly checked for mycoplasma infection. 6.1. Cell binding studies. For the determination of the binding affinity, a competitive binding radioassay was performed. Two 24 well plates were incubated with 50.000 cells 3 to 4 days prior to the cell experiments. After washing the cells twice with warm PBS, new medium was added. For the binding […] cold reference compound F-PSMA-MIC01 were added to the wells shortly before 50 µL of the radioligand [68Ga]PSMA-HBED-CC or [18F]PSMA-1007 to reach a final volume of 500 µL in each well. After incubation of 90 min at 37°C under humidified conditions the cells were washed twice with ice-cold PBS to remove unbound tracer. Cells were detached from the wells using Trypsin supplemented with 25 % EDTA and incubated until cells were completely detached. 900 µL of medium was added and cells were transferred into tubes. The remaining activity in the cells were measured in a γ-counter. Afterwards, the cells were counted in a 1:1 solution of cell suspension and Trypan Blue. The tracer uptake was calculated using Microsoft Excel and corrected for the average number of cells and averaged. The logIC50 value was calculated using the non-linear regression algorithm for a one-site FITlogIC50 […] The graphs represented show the average of the three individual experiments, while the mentioned logIC50 was calculated from the mean of the three experiments; 19

The subject of the next data set is LNCaP (PSMA+) xenografts. The experiment in a line: ex vivo organ distribution, LNCaP xenograft mice. The class given is in vivo, Balb/c nude mice. The following applies: LNCaP (PSMA+) xenograft, dissected after PET scan. On the procedure: All groups were evaluated by visual assessment of the PET image and the percentage injected dose per gram (%ID g^−1).
The animal experiments were all performed according to the ethical guidelines and approved by the local animal welfare committee of the University of Groningen (IvD number 15166-06-001. All animals were caged separately in individually ventilated cages.
7-12 week old immune deficient Balb/c nude mice were inoculated with 200 µL of a 1:1 suspension of medium containing approximately 4 x10^6 LNCaP cells (PSMA positive cells) or 5 x 10^6 PC3 cells (PSMA-negative cells) in RPMI-1640, and Matrigel Basement Membrane Matrix High concentration. The cells were subcutaneously inoculated on the right shoulder.
After 3 to 5 weeks for LNCaP-xenografts, 2-3 weeks for PC3-xenografts or when a tumor size of 1cm3 was reached, the animals were transported to the PET imaging facility. For the […]
prepared and 100 µL were injected via penile vein injection 30 min prior to the tracer injection. Animals were anesthetized at 5 % isoflurane and maintained under 2 % isoflurane enriched with O2. The dynamic PET scan was started within 5 min after tracer injection with an acquisition time of 90 min. The static scan was performed 60 min after tracer injection with an acquisition time of 30 min.
7.2. Organ distribution and Metabolite analysis.
After sacrificing the animals, the organs were dissected and measured in a γ-counter. The obtained CPM’s were normalized to %ID/g (Table shown in main text). […]
In order to check for the significant differences, we also checked for the Cohen’s d, a measurement to determine the effect size. It is calculated on the following formula:
Cohen′sD = Mean1− Mean2 . […]

Data set [3] deals with T1, PSMA. The experiment in a line: cell-based competitive binding radioassay with [68Ga]PSMA-11 as radioligand on LNCaP cells. On the procedure: To compare the binding affinity of F‐PSMA‐MIC01 with „gold standard“ PSMA‐tracers, the same assay was performed using the precursor of [^68Ga]PSMA‐11 (Figure 2 D).
Table S3. Counts per minute (CPM) of the 3 indidicually measured triplicates of [18F]PSMA-MIC01 of n- […]
Octanol (CPM) PBS (CPM) BLK (CPM) LogD Mean SD
Prostate cancer cell lines PC-3 and LNCaP were obtained from the American Type Culture Collection (ATCC, Manassas, VA). Cells were cultured in RPMI-1640 (Lonza, Swiss), supplemented with 10 % fetal calf serum (FCS, Thermo Scientific Waltham, MA) at 37°C in a humidified 5 % CO2 atmosphere. To enhance adherence of LNCaP cells tissue culture flasks and/or well plates were pre-coated with poly-D-lysine (Merck) according manufacture protocol. Cells were regularly checked for mycoplasma infection.
6.1. Cell binding studies.
For the determination of the binding affinity, a competitive binding radioassay was performed.
Two 24 well plates were incubated with 50.000 cells 3 to 4 days prior to the cell experiments.
After washing the cells twice with warm PBS, new medium was added. For the binding […]
cold reference compound F-PSMA-MIC01 were added to the wells shortly before 50 µL of the radioligand [68Ga]PSMA-HBED-CC or [18F]PSMA-1007 to reach a final volume of 500 µL in each well. After incubation of 90 min at 37°C under humidified conditions the cells were washed twice with ice-cold PBS to remove unbound tracer. Cells were detached from the wells using Trypsin supplemented with 25 % EDTA and incubated until cells were completely detached. […] The remaining activity in the cells were measured in a γ-counter. Afterwards, the cells were counted in a 1:1 solution of cell suspension and Trypan Blue. The tracer uptake was calculated using Microsoft Excel and corrected for the average number of cells and averaged. The logIC50 value was calculated using the non-linear regression algorithm for a one-site FITlogIC50 using PrismGraphPad 7.2. The graphs represented show the average of the three individual experiments, while the mentioned logIC50 was calculated from the mean of the three

[4] abbreviates: given as logIC50, single experiments, radioligand [18F]PSMA-1007, read-out: logIC50, individual experiments (converted).

Where “and” joins values, the source holds several entries; their conditions need not be identical. Equal values may be shown once.

T1 sequence (Q04609 whole entry): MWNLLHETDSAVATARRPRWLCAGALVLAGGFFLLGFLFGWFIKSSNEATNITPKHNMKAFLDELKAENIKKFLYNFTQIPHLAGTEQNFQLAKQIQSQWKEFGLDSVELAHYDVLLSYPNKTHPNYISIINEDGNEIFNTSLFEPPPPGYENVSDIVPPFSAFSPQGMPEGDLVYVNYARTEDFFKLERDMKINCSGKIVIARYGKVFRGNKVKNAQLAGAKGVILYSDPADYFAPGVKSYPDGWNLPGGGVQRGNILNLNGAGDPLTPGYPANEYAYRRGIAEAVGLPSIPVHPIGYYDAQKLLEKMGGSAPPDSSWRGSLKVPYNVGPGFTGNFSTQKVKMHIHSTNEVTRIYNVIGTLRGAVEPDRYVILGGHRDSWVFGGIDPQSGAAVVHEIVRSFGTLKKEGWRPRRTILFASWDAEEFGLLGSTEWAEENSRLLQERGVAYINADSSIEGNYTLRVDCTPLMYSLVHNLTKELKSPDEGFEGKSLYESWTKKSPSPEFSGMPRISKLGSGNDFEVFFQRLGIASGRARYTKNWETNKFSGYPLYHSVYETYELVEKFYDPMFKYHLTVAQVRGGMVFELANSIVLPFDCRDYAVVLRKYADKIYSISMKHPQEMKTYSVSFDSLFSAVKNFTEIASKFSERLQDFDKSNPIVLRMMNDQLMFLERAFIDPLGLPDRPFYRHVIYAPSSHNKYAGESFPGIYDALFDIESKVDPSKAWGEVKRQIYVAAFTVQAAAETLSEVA

`O=C(O)CC[C@H](NC(=O)N[C@@H](CCCCNC(=O)c1ccc(-c2cn(CCOCCOCCOc3ccc(CC[18F])cc3)nn2)cc1)C(=O)O)C(=O)O` [[^18F]PSMA‐MIC02] yielded a logD in data set [1] of -3.22 ± 0.1.

As for `O=C(O)CC[C@H](NC(=O)N[C@@H](CCCCNC(=O)[C@H](Cc1ccc2ccccc2c1)NC(=O)c1ccc(CNC(=O)[C@H](CCC(=O)O)NC(=O)[C@H](CCC(=O)O)NC(=O)c2ccc([18F])nc2)cc1)C(=O)O)C(=O)O` [[^18F]PSMA‐1007], the LNCaP tumor uptake in the data set with LNCaP tumor is recorded as 8.04±2.4 %ID g^−1.

For the compound `O=C(O)CC[C@H](NC(=O)N[C@@H](CCCCNC(=O)c1ccc(Cn2cc(COCCOCCOc3ccc(CCF)cc3)nn2)cc1)C(=O)O)C(=O)O` [F-PSMA-MIC04], on PSMA [2] (setting [4]), the IC50 was 245 nM and 151 nM and 490 nM.

Take `O=C([O-])CN(CCN(CC(=O)[O-])Cc1cc(CCC(=O)NCCCCCC(=O)NCCCC[C@H](NC(=O)N[C@@H](CCC(=O)O)C(=O)O)C(=O)O)ccc1[O-])Cc1cc(CCC(=O)O)ccc1[O-].[68Ga+3].[OH3+]` [[^68Ga]PSMA‐11, reference compound]: in the data set with LNCaP (PSMA+) xenografts, the “ex vivo uptake bone” value amounted to 0.1±0.1 %ID g^−1, the “ex vivo uptake brain” value is 0.0±0.0 %ID g^−1, the “ex vivo uptake heart” value stood at 0.2±0.0 %ID g^−1 and the “ex vivo uptake kidney” value is on record as 69.1±21.1 %ID g^−1. For the same compound, in the data set with LNCaP (PSMA+) xenografts, the “ex vivo uptake large intestine” value was 0.7±0.9 %ID g^−1, the “ex vivo uptake liver” value worked out at 0.2±0.3 %ID g^−1, the “ex vivo uptake lungs” value was found to be 1.1±0.4 %ID g^−1 and the “ex vivo uptake muscles” value is recorded as 0.2±0.1 %ID g^−1. In the data set on LNCaP (PSMA+) xenografts, the “ex vivo uptake pancreas” value is reported as 0.6±0.6 %ID g^−1, the “ex vivo uptake plasma” value worked out at 1.0±0.5 %ID g^−1, the “ex vivo uptake salivary glands” value worked out at 0.9±0.4 %ID g^−1 and the “ex vivo uptake small intestine” value is 0.5±0.6 %ID g^−1. Also, in the data set with LNCaP (PSMA+) xenografts, the “ex vivo uptake spleen” value came to 15.9±7.3 %ID g^−1, the “ex vivo uptake stomach” value is on record as 0.4±0.2 %ID g^−1, the “ex vivo uptake tumor” value worked out at 6.8±6.3 %ID g^−1 and the “ex vivo uptake urine” value was 45.4±30.8 %ID g^−1. Also, the “ex vivo uptake whole blood” value with LNCaP (PSMA+) xenografts turned out to be 2.2±3.8 %ID g^−1.

Take `O=C(O)CCc1ccc(O)c(CN(CCN(CC(=O)O)Cc2cc(CCC(=O)NCCCCCC(=O)NCCCC[C@H](NC(=O)N[C@@H](CCC(=O)O)C(=O)O)C(=O)O)ccc2O)CC(=O)O)c1` [precursor of PSMA-11, reference compound]: at PSMA [3] (given as logIC50, single experiments, radioligand [68Ga]PSMA-11, listed as PSMA-11 precursor), the “logIC50, individual experiments (No 1-3)” value is -7.12 and -7.03 and -7.53.

For `O=C(O)CC[C@H](NC(=O)N[C@@H](CCCCNC(=O)c1ccc(-c2cn(CCOCCOCCF)nn2)cc1)C(=O)O)C(=O)O` [F-PSMA-MIC01], the IC50 at PSMA [3] (given as logIC50, single experiments, radioligand [68Ga]PSMA-11, read-out: logIC50, individual experiments (No 1-3) (converted)) was 57.5 nM and 138 nM and 257 nM; on PSMA [3] (printed as logIC50 (negative values), mean of three experiments, radioligand [68Ga]PSMA-11, 90 min 37°C, read-out: logIC50 (converted)), 129 nM; at PSMA [2] (setting [4]) it was 363 nM and 851 nM and 219 nM.

As to `O=C(O)CC[C@H](NC(=O)N[C@@H](CCCCNC(=O)c1ccc(Cn2cc(COCCOCCF)nn2)cc1)C(=O)O)C(=O)O` [F-PSMA-MIC03], at PSMA [2] (printed as logIC50 (negative values), mean of n=3 (MIC03 n=4), radioligand [18F]PSMA-1007, read-out: logIC50 (converted)), the IC50 is 275 nM.

As for `O=C(O)CC[C@H](NC(=O)N[C@@H](CCCCNC(=O)c1ccc(-c2cn(CCOCCOCCOc3ccc(CCF)cc3)nn2)cc1)C(=O)O)C(=O)O` [F-PSMA-MIC02], the IC50 on PSMA [2] (setting [4]) is 44.7 nM and 45.7 nM and 30.9 nM.

Values taken from article PMC7496508, “Modular Medical Imaging Agents Based on Azide–Alkyne Huisgen Cycloadditions: Synthesis and Pre‐Clinical Evaluation of ^18F‐Labeled PSMA‐Tracers for Prostate Cancer Imaging” (Chemistry (Weinheim an Der Bergstrasse, Germany), 2020).
